Laboratory results as given in ChEMBL document CHEMBL3137667, “[Drug-induced liver injury; fourteenth updated edition of the bibliographic database of liver injuries and related drugs]” (Gastroenterol Clin Biol, 2004).

How the values were obtained:
[1] = Highest frequency of moderate liver toxicity observed during clinical trials, expressed as a percentage. [column '% BIOL' in source]; conditions: human
[2] = Highest frequency of acute liver toxicity observed during clinical trials, expressed as a percentage. [column '% AIGUE' in source]; conditions: human
[3] = Times to onset, minimal and maximal, observed in the indexed observations. [column 'DELAI' in source]; conditions: human
[4] = human, serum
[5] = human, serum; remark: listed apart in the source
[6] = human
[7] = human; remark: listed apart in the source
[8] = human; remark: listed apart in the source
[9] = human, serum, 4383 h
[10] = human; remark: listed apart in the source
[11] = human; remark: listed apart in the source
[12] = human; remark: listed apart in the source
[13] = human; remark: listed apart in the source
[14] = human; remark: listed apart in the source
[15] = human; remark: listed apart in the source
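Wherever Hepatotoxicity (association with vascular disease) is given: count of indexed literature references reporting vascular liver injury in humans, e.g. peliosis hepatitis, hepatic veno-occlusive disease or Budd-Chiari syndrome.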
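Wherever Hepatotoxicity (benign tumour) is given: value is a count of indexed literature references citing a benign tumour confirmed by histopathology.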
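Wherever Hepatotoxicity (choleostasis) is given: human cholestatic liver injury, shown by histopathology or by peak ALT or AST elevation over alkaline phosphatase ratio below 2, value counts indexed literature reports.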
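Wherever Hepatotoxicity (chronic liver disease) is given: chronic liver injury confirmed by histopathology or persistently raised serum aminotransferase activity beyond 6 months, value given as the count of indexed literature references.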
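Wherever Hepatotoxicity (cirrhosis) is given: value is a count of indexed literature references reporting cirrhosis confirmed by histopathology.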
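Wherever Hepatotoxicity (cytolytic) is given: human cytolytic liver injury, shown by histopathology or by a ratio above 5 of peak ALT or AST elevation to alkaline phosphatase elevation, value counts indexed references.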
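Wherever Hepatotoxicity (granulomatous hepatitis) is given: value is a count of indexed literature references reporting granulomatous liver disease confirmed by histopathology.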
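Wherever Hepatotoxicity (malignant tumour) is given: malignant tumour confirmed by histopathology, value gives the count of indexed literature references reporting it.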
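Wherever Hepatotoxicity (severe hepatitis) is given: human clinical data: severe hepatitis, meaning potentially life-threatening liver failure or clinically observed cases, the value counts how many indexed literature references report it.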
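Wherever Hepatotoxicity (steatosis) is given: steatosis confirmed by histopathology, value is the count of indexed references.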

Clc1ccccc1C(c1ccccc1)(c1ccccc1)n1ccnc1 [CLOTRIMAZOLE]
Hepatotoxicity (moderate) [1]: 40%
Hepatotoxicity (acute) [2]: 0%
Hepatotoxicity (time to onset) [3]: 17 days
Hepatotoxicity (moderate) [4]: 8
Hepatotoxicity (acute) [5]: 0
Hepatotoxicity (cytolytic) [6]: 0
Hepatotoxicity (choleostasis) [7]: 0
Hepatotoxicity (severe hepatitis) [8]: 0
Hepatotoxicity (chronic liver disease) [9]: 0
Hepatotoxicity (cirrhosis) [10]: 0
Hepatotoxicity (granulomatous hepatitis) [11]: 0
Hepatotoxicity (association with vascular disease) [12]: 0
Hepatotoxicity (steatosis) [13]: 0
Hepatotoxicity (malignant tumour) [14]: 0
Hepatotoxicity (benign tumour) [15]: 0

C1CC1 [CYCLOPROPANE]
Hepatotoxicity (moderate) [1]: 0%
Hepatotoxicity (acute) [2]: 0%
Hepatotoxicity (time to onset) [3]: 1 day - 2 weeks
Hepatotoxicity (moderate) [4]: 0
Hepatotoxicity (acute) [5]: 3
Hepatotoxicity (cytolytic) [6]: 3
Hepatotoxicity (choleostasis) [7]: 0
Hepatotoxicity (severe hepatitis) [8]: 2
Hepatotoxicity (chronic liver disease) [9]: 0
Hepatotoxicity (cirrhosis) [10]: 0
Hepatotoxicity (granulomatous hepatitis) [11]: 0
Hepatotoxicity (association with vascular disease) [12]: 0
Hepatotoxicity (steatosis) [13]: 0
Hepatotoxicity (malignant tumour) [14]: 0
Hepatotoxicity (benign tumour) [15]: 0

N[C@@H]1CON=C1O [CYCLOSERINE]
Hepatotoxicity (moderate) [1]: 13%
Hepatotoxicity (acute) [2]: 5.4%
Hepatotoxicity (time to onset) [3]: 11 weeks
Hepatotoxicity (moderate) [4]: 3
Hepatotoxicity (acute) [5]: 2
Hepatotoxicity (cytolytic) [6]: 2
Hepatotoxicity (choleostasis) [7]: 0
Hepatotoxicity (severe hepatitis) [8]: 1
Hepatotoxicity (chronic liver disease) [9]: 0
Hepatotoxicity (cirrhosis) [10]: 0
Hepatotoxicity (granulomatous hepatitis) [11]: 0
Hepatotoxicity (association with vascular disease) [12]: 0
Hepatotoxicity (steatosis) [13]: 0
Hepatotoxicity (malignant tumour) [14]: 0
Hepatotoxicity (benign tumour) [15]: 0

Cc1c(O)c(=O)ccn1C [DEFERIPRONE]
Hepatotoxicity (moderate) [1]: 59.5%
Hepatotoxicity (acute) [2]: 1.2%
Hepatotoxicity (time to onset) [3]: 3 months
Hepatotoxicity (moderate) [4]: 8
Hepatotoxicity (acute) [5]: 1
Hepatotoxicity (cytolytic) [6]: 1
Hepatotoxicity (choleostasis) [7]: 0
Hepatotoxicity (severe hepatitis) [8]: 0
Hepatotoxicity (chronic liver disease) [9]: 0
Hepatotoxicity (cirrhosis) [10]: 0
Hepatotoxicity (granulomatous hepatitis) [11]: 0
Hepatotoxicity (association with vascular disease) [12]: 0
Hepatotoxicity (steatosis) [13]: 0
Hepatotoxicity (malignant tumour) [14]: 0
Hepatotoxicity (benign tumour) [15]: 0

CC(=O)N(O)CCCCCNC(=O)CCC(=O)N(O)CCCCCNC(=O)CCC(=O)N(O)CCCCCN [DEFEROXAMINE]
Hepatotoxicity (moderate) [1]: 28%
Hepatotoxicity (acute) [2]: 0%
Hepatotoxicity (time to onset) [3]: 6 weeks
Hepatotoxicity (moderate) [4]: 1
Hepatotoxicity (acute) [5]: 1
Hepatotoxicity (cytolytic) [6]: 1
Hepatotoxicity (choleostasis) [7]: 0
Hepatotoxicity (severe hepatitis) [8]: 1
Hepatotoxicity (chronic liver disease) [9]: 0
Hepatotoxicity (cirrhosis) [10]: 0
Hepatotoxicity (granulomatous hepatitis) [11]: 0
Hepatotoxicity (association with vascular disease) [12]: 0
Hepatotoxicity (steatosis) [13]: 0
Hepatotoxicity (malignant tumour) [14]: 0
Hepatotoxicity (benign tumour) [15]: 0

CNCCON=c1c2ccccc2ccc2ccccc12 [DEMEXIPTILINE]
Hepatotoxicity (moderate) [1]: 0%
Hepatotoxicity (acute) [2]: 0%
Hepatotoxicity (time to onset) [3]: 6 weeks
Hepatotoxicity (moderate) [4]: 0
Hepatotoxicity (acute) [5]: 1
Hepatotoxicity (cytolytic) [6]: 1
Hepatotoxicity (choleostasis) [7]: 1
Hepatotoxicity (severe hepatitis) [8]: 0
Hepatotoxicity (chronic liver disease) [9]: 0
Hepatotoxicity (cirrhosis) [10]: 0
Hepatotoxicity (granulomatous hepatitis) [11]: 0
Hepatotoxicity (association with vascular disease) [12]: 0
Hepatotoxicity (steatosis) [13]: 0
Hepatotoxicity (malignant tumour) [14]: 0
Hepatotoxicity (benign tumour) [15]: 0

NC(=O)CC[C@@H]1NC(=O)[C@H](Cc2ccccc2)NC(=O)[C@H](Cc2ccc(O)cc2)NC(=O)CCSSC[C@@H](C(=O)N2CCC[C@H]2C(=O)N[C@H](CCCN=C(N)N)C(=O)NCC(N)=O)NC(=O)[C@H](CC(N)=O)NC1=O [DESMOPRESSIN]
Hepatotoxicity (moderate) [1]: 20%
Hepatotoxicity (acute) [2]: 0%
Hepatotoxicity (time to onset) [3]: 5 days - 4 weeks
Hepatotoxicity (moderate) [4]: 2
Hepatotoxicity (acute) [5]: 0
Hepatotoxicity (cytolytic) [6]: 0
Hepatotoxicity (choleostasis) [7]: 0
Hepatotoxicity (severe hepatitis) [8]: 0
Hepatotoxicity (chronic liver disease) [9]: 0
Hepatotoxicity (cirrhosis) [10]: 0
Hepatotoxicity (granulomatous hepatitis) [11]: 0
Hepatotoxicity (association with vascular disease) [12]: 0
Hepatotoxicity (steatosis) [13]: 0
Hepatotoxicity (malignant tumour) [14]: 0
Hepatotoxicity (benign tumour) [15]: 0
